Experimental findings from PMC13104650 (Acta Pharmaceutica Sinica. B, 2025) are described below.

Broadly, the Kd is the equilibrium constant for the complex coming apart.

The target of this test is T1, TXNRD1 (cytosolic thioredoxin reductase 1) (Rattus norvegicus, UniProt O89049).
T1 sequence (O89049 1-499): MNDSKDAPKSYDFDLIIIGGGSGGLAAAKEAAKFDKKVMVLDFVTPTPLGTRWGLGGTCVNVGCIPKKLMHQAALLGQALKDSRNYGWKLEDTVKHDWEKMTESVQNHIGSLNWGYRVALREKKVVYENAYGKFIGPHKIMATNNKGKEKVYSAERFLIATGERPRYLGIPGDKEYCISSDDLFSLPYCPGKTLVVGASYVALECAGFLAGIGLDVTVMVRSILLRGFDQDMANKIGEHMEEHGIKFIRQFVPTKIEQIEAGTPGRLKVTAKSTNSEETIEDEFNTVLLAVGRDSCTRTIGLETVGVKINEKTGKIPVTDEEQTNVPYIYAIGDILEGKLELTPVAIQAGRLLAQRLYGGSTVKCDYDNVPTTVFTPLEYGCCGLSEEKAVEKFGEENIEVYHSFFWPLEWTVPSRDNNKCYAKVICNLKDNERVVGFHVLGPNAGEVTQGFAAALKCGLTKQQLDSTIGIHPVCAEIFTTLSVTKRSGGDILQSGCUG
Put plainly: ITC. The test is classed as binding.

As for `C=C1C(=O)O[C@@H]2C[C@@]3(C)CCCC(=C)[C@@H]3C[C@H]12` [IAL, Isoalantolactone], the Kd worked out at 0.0839 µM.
